In patent publication US20240358692A1, “TREATMENT OF SCLERODERMA” (Aisa Pharma, Inc., priority 2023, published 2024):

Test system: participants with SSc-RP
Assay: Average severity of weekly RP attacks (VAS 0-10)
Assay type: in vivo, human
Details: for Average Severity (0-10) of weekly RP attacks, Median / Average Severity (0-10) of weekly RP attacks, Mean / Average severity of weekly RP attacks, Percent Change from Baseline, Mean / Average severity of weekly RP attacks, Change from Baseline, Mean / Average severity of weekly RP attacks, Percent Change from Baseline, Median / Average severity of weekly RP attacks, Change from Baseline, Median: all attacks
From the text: The absolute change in average severity of weekly RP attacks (VAS 0-10 cm scale) from baseline to the end of each Dosing Period was and will be a secondary outcome variable. The sponsor-developed participant-informed diary will be used to record data. Average severity of weekly RP attacks is defined as the total severity scores of RP attacks divided by total number of RP attacks within the last 7 days of each dosing period. Total severity scores of RP attacks during the last 7 days of screening period divided by the total number of RP attacks will be used as baseline for the analysis of all periods. The variable will be calculated similar to frequency data as before.

[1] = Pooled Cilnidipine 10 mg and Cilnidipine 10 mg + Tadalafil 5 mg, Excluding Outliers, 1st Baseline RCS subgroup, ITT Part A, last 7 days of dosing period
[2] = Pooled Cilnidipine 10 mg and Cilnidipine 10 mg + Tadalafil 5 mg, Excluding Outliers, 2nd Baseline RCS subgroup, ITT Part A, last 7 days of dosing period
[3] = Pooled Cilnidipine 10 mg and Cilnidipine 10 mg + Tadalafil 5 mg, ITT Part A, last 7 days of dosing period
[4] = Pooled Cilnidipine 10 mg and Cilnidipine 10 mg + Tadalafil 5 mg, Excluding Outliers, by Baseline RCS: second subgroup of Table C-8, ITT Part A
[5] = Pooled Cilnidipine 10 mg and Cilnidipine 10 mg + Tadalafil 5 mg, by Baseline RCS: second subgroup of Table C-7, ITT Part A
[6] = Pooled Cilnidipine 20 mg and Cilnidipine 20 mg + Tadalafil 5 mg, 1st Baseline RCS subgroup, ITT Part A, last 7 days of dosing period
[7] = Pooled Cilnidipine 20 mg and Cilnidipine 20 mg + Tadalafil 5 mg, 2nd Baseline RCS subgroup, ITT Part A, last 7 days of dosing period
[8] = Pooled Cilnidipine 20 mg and Cilnidipine 20 mg + Tadalafil 5 mg, Excluding Outliers, 1st Baseline RCS subgroup, ITT Part A, last 7 days of dosing period
[9] = Pooled Cilnidipine 20 mg and Cilnidipine 20 mg + Tadalafil 5 mg, Excluding Outliers, 2nd Baseline RCS subgroup, ITT Part A, last 7 days of dosing period
[10] = Pooled Cilnidipine 20 mg and Cilnidipine 20 mg + Tadalafil 5 mg, ITT Part A, last 7 days of dosing period
[11] = Pooled Cilnidipine 20 mg and Cilnidipine 20 mg + Tadalafil 5 mg, Excluding Outliers, by Baseline RCS: first subgroup of Table C-8, ITT Part A
[12] = Pooled Cilnidipine 20 mg and Cilnidipine 20 mg + Tadalafil 5 mg, by Baseline RCS: first subgroup of Table C-7, ITT Part A
[13] = Pooled Cilnidipine, 1st Baseline RCS subgroup, ITT Part A, last 7 days of dosing period
[14] = Pooled Cilnidipine, Excluding Outliers, 1st Baseline RCS subgroup, ITT Part A, last 7 days of dosing period
[15] = Pooled Cilnidipine, ITT Part A, last 7 days of dosing period
[16] = Pooled Cilnidipine, Excluding Outliers, ITT Part A
[17] = Pooled Cilnidipine, Excluding Outliers, by Baseline RCS: first subgroup of Table C-8, ITT Part A
[18] = Pooled Cilnidipine, by Baseline RCS: first subgroup of Table C-7, ITT Part A
[19] = Pooled Cilnidipine, excluding outliers, ITT Part A
[20] = Pooled Cilnidipine, excluding outliers, severity 0-10, ITT Part A
[21] = Pooled Cilnidipine, severity 0-10, ITT Part A

COCCOC(=O)C1=C(C)NC(C)=C(C(=O)OC/C=C/c2ccccc2)C1c1cccc([N+](=O)[O-])c1 (centres unmarked) [Cilnidipine]
Average Severity of Weekly Symptomatic RP Attacks, Change from Baseline, Median [1]: −1.22 | Average Severity of Weekly Symptomatic RP Attacks, Mean [1]: 3.34 | Average Severity of Weekly Symptomatic RP Attacks, Median [1]: 3.34 | Average Severity of Weekly Symptomatic RP Attacks, Percent Change from Baseline, Mean [1]: −20.18% | Average Severity of Weekly Symptomatic RP Attacks, Percent Change from Baseline, Median [1]: −20.18% | Average Severity of Weekly Symptomatic RP Attacks, Change from Baseline, Mean [2]: −1.13 | Average Severity of Weekly Symptomatic RP Attacks, Change from Baseline, Median [2]: −1.13 | Average Severity of Weekly Symptomatic RP Attacks, Mean [2]: 5.23 | Average Severity of Weekly Symptomatic RP Attacks, Median [2]: 5.23 | Average Severity of Weekly Symptomatic RP Attacks, Percent Change from Baseline, Mean [2]: −17.81% | Average Severity of Weekly Symptomatic RP Attacks, Percent Change from Baseline, Median [2]: −17.81% | Average Severity of Weekly RP Attacks (All Attacks), Change from Baseline, Mean [3]: −1.34 | Average Severity of Weekly RP Attacks (All Attacks), Change from Baseline, Median [3]: −1.32 | Average Severity of Weekly RP Attacks (All Attacks), Mean [3]: 3.62 | Average Severity of Weekly RP Attacks (All Attacks), Median [3]: 3.05 | Average Severity of Weekly RP Attacks (All Attacks), Percent Change from Baseline, Mean [3]: −23.02% | Average Severity of Weekly RP Attacks (All Attacks), Percent Change from Baseline, Median [3]: −21.20% | Average Severity (0-10) of weekly RP attacks, Median (Pooled Cilnidipine 10 mg and Cilnidipine 10 mg + Tadalafil 5 mg, Excluding Outliers, ITT Part A): 3.05 | Average Severity (0-10) of weekly RP attacks, Mean [4]: 4.90 | Average Severity (0-10) of weekly RP attacks, Median [4]: 4.90 | Average severity of weekly RP attacks, Percent Change from Baseline, Mean [4]: −21.20% | Average severity of weekly RP attacks, Change from Baseline, Mean (Pooled Cilnidipine 10 mg and Cilnidipine 10 mg + Tadalafil 5 mg, by Baseline RCS: first subgroup of Table C-7, ITT Part A): −1.35 | Average Severity (0-10) of weekly RP attacks, Mean [5]: 4.90 | Average Severity (0-10) of weekly RP attacks, Median [5]: 4.90 | Average severity of weekly RP attacks, Percent Change from Baseline, Mean [5]: −21.20% | Average severity of weekly RP attacks, Percent Change from Baseline, Median [5]: −21.20% | Average Severity of Weekly Symptomatic RP Attacks, Change from Baseline, Mean [6]: −1.06 | Average Severity of Weekly Symptomatic RP Attacks, Change from Baseline, Median [6]: −0.33 | Average Severity of Weekly Symptomatic RP Attacks, Mean [6]: 2.85 | Average Severity of Weekly Symptomatic RP Attacks, Median [6]: 2.40 | Average Severity of Weekly Symptomatic RP Attacks, Percent Change from Baseline, Mean [6]: −24.28% | Average Severity of Weekly Symptomatic RP Attacks, Percent Change from Baseline, Median [6]: −12.02% | Average Severity of Weekly Symptomatic RP Attacks, Change from Baseline, Mean [7]: −1.79 | Average Severity of Weekly Symptomatic RP Attacks, Change from Baseline, Median [7]: −1.79 | Average Severity of Weekly Symptomatic RP Attacks, Mean [7]: 5.06 | Average Severity of Weekly Symptomatic RP Attacks, Median [7]: 5.06 | Average Severity of Weekly Symptomatic RP Attacks, Percent Change from Baseline, Mean [7]: −26.14% | Average Severity of Weekly Symptomatic RP Attacks, Percent Change from Baseline, Median [7]: −26.14% | Average Severity of Weekly Symptomatic RP Attacks, Change from Baseline, Mean [8]: −1.06 | Average Severity of Weekly Symptomatic RP Attacks, Change from Baseline, Median [8]: −0.33 | Average Severity of Weekly Symptomatic RP Attacks, Mean [8]: 2.85 | Average Severity of Weekly Symptomatic RP Attacks, Median [8]: 2.40 | Average Severity of Weekly Symptomatic RP Attacks, Percent Change from Baseline, Mean [8]: −24.28% | Average Severity of Weekly Symptomatic RP Attacks, Percent Change from Baseline, Median [8]: −12.02% | Average Severity of Weekly Symptomatic RP Attacks, Change from Baseline, Mean [9]: −1.79 | Average Severity of Weekly Symptomatic RP Attacks, Change from Baseline, Median [9]: −1.79 | Average Severity of Weekly Symptomatic RP Attacks, Mean [9]: 5.06 | Average Severity of Weekly Symptomatic RP Attacks, Median [9]: 5.06 | Average Severity of Weekly Symptomatic RP Attacks, Percent Change from Baseline, Mean [9]: −26.14% | Average Severity of Weekly Symptomatic RP Attacks, Percent Change from Baseline, Median [9]: −26.14% | Average Severity of Weekly RP Attacks (All Attacks), Change from Baseline, Mean [10]: −1.02 | Average Severity of Weekly RP Attacks (All Attacks), Change from Baseline, Median [10]: −0.96 | Average Severity of Weekly RP Attacks (All Attacks), Mean [10]: 3.35 | Average Severity of Weekly RP Attacks (All Attacks), Median [10]: 3.06 | Average Severity of Weekly RP Attacks (All Attacks), Percent Change from Baseline, Mean [10]: −21.83% | Average Severity of Weekly RP Attacks (All Attacks), Percent Change from Baseline, Median [10]: −16.40% | Average severity of weekly RP attacks, Change from Baseline, Median (Pooled Cilnidipine 20 mg and Cilnidipine 20 mg + Tadalafil 5 mg, Excluding Outliers, ITT Part A): −0.96 | Average Severity (0-10) of weekly RP attacks, Median [11]: 2.40 | Average severity of weekly RP attacks, Change from Baseline, Mean [11]: −0.84 | Average severity of weekly RP attacks, Change from Baseline, Median [11]: −0.39 | Average Severity (0-10) of weekly RP attacks, Median [12]: 2.40 | Average severity of weekly RP attacks, Change from Baseline, Mean [12]: −0.84 | Average severity of weekly RP attacks, Change from Baseline, Median [12]: −0.39 | Severity (change) (Pooled Cilnidipine (n = 7)): −16% | Average Severity of Weekly Symptomatic RP Attacks, Change from Baseline, Mean [13]: −0.87 | Average Severity of Weekly Symptomatic RP Attacks, Change from Baseline, Median [13]: −0.33 | Average Severity of Weekly Symptomatic RP Attacks, Mean [13]: 2.79 | Average Severity of Weekly Symptomatic RP Attacks, Median [13]: 2.40 | Average Severity of Weekly Symptomatic RP Attacks, Percent Change from Baseline, Mean [13]: −19.22% | Average Severity of Weekly Symptomatic RP Attacks, Percent Change from Baseline, Median [13]: −12.02% | Average Severity of Weekly Symptomatic RP Attacks, Change from Baseline, Mean [14]: −0.87 | Average Severity of Weekly Symptomatic RP Attacks, Change from Baseline, Median [14]: −0.33 | Average Severity of Weekly Symptomatic RP Attacks, Mean [14]: 2.79 | Average Severity of Weekly Symptomatic RP Attacks, Median [14]: 2.40 | Average Severity of Weekly Symptomatic RP Attacks, Percent Change from Baseline, Mean [14]: −19.22% | Average Severity of Weekly Symptomatic RP Attacks, Percent Change from Baseline, Median [14]: −12.02% | Average Severity of Weekly Symptomatic RP Attacks, Percent Change from Baseline, Mean (Pooled Cilnidipine, ITT Part A): −19.22% | Average Severity of Weekly Symptomatic RP Attacks, Percent Change from Baseline, Median (Pooled Cilnidipine, ITT Part A): −12.02% | Average Severity of Weekly RP Attacks (All Attacks), Change from Baseline, Mean [15]: −0.71 | Average Severity of Weekly RP Attacks (All Attacks), Change from Baseline, Median [15]: −0.20 | Average Severity of Weekly RP Attacks (All Attacks), Mean [15]: 2.55 | Average Severity of Weekly RP Attacks (All Attacks), Median [15]: 2.40 | Average Severity of Weekly RP Attacks (All Attacks), Percent Change from Baseline, Mean [15]: −17.99% | Average Severity of Weekly RP Attacks (All Attacks), Percent Change from Baseline, Median [15]: −7.69% | Average Severity (0-10) of weekly RP attacks, Median [16]: 2.40 | Average severity of weekly RP attacks, Change from Baseline, Mean [16]: −0.71 | Average severity of weekly RP attacks, Change from Baseline, Median [16]: −0.20 | Average Severity (0-10) of weekly RP attacks, Mean [17]: 2.55 | Average Severity (0-10) of weekly RP attacks, Median [17]: 2.40 | Average severity of weekly RP attacks, Change from Baseline, Mean [17]: −0.71 | Average severity of weekly RP attacks, Change from Baseline, Median [17]: −0.20 | Average severity of weekly RP attacks, Percent Change from Baseline, Mean [17]: −17.99% | Average severity of weekly RP attacks, Percent Change from Baseline, Median [17]: −7.69% | Average Severity (0-10) of weekly RP attacks, Mean [18]: 2.55 | Average Severity (0-10) of weekly RP attacks, Median [18]: 2.40 | Average severity of weekly RP attacks, Change from Baseline, Mean [18]: −0.71 | Average severity of weekly RP attacks, Change from Baseline, Median [18]: −0.20 | Average severity of weekly RP attacks, Percent Change from Baseline, Mean [18]: −17.99% | Average severity of weekly RP attacks, Percent Change from Baseline, Median [18]: −7.69% | Average Severity of Weekly Symptomatic RP Attacks, Percent Change from Baseline, Mean [19]: −19.22% | Average Severity of Weekly Symptomatic RP Attacks, Percent Change from Baseline, Median [19]: −12.02% | Average Severity of Weekly Symptomatic RP Attacks, Change from Baseline, Mean [20]: −0.87 | Average Severity of Weekly Symptomatic RP Attacks, Change from Baseline, Median [20]: −0.33 | Average Severity of Weekly Symptomatic RP Attacks, Mean [20]: 2.79 | Average Severity of Weekly Symptomatic RP Attacks, Median [20]: 2.40 | Average Severity of Weekly Symptomatic RP Attacks, Change from Baseline, Mean [21]: −0.87 | Average Severity of Weekly Symptomatic RP Attacks, Change from Baseline, Median [21]: −0.33 | Average Severity of Weekly Symptomatic RP Attacks, Mean [21]: 2.79 | Average Severity of Weekly Symptomatic RP Attacks, Median [21]: 2.40 | severity of attacks, dose response (cilnidipine monotherapy 10 mg vs 20 mg (n=3)): 20 mg reducing severity more than 10 mg
